In patent publication US12377601B2, “Fast-eluting three-dimensionally molded object, filament for fast-eluting three-dimensionally molded object, and material for fast-eluting three-dimensionally molded object” (ASTELLAS PHARMA INC., priority 2016, dated 2025):
Values after ≈ are worked out from the molar mass of the structure shown. Read-outs that look alike come from different tables or passages of the source.

Experiment: Solubility of the active component in Japanese Pharmacopoeia dissolution test fluids
Assay type: physicochemical
Method: As specific materials, N^2-[(2E)-3-(4-chlorophenyl)-2-propenoyl]-N-[2-oxo-2-(4-{[6-(trifluoromethyl)pyrimidine-4-yl]oxy}piperidine-1-yl)ethyl]-3-pyridine-2-yl-L-alaninamide (manufactured by Astellas Pharma Inc., a solubility to a dissolution test 1st fluid of the Japanese Pharmacopoeia: >100 µM, a solubility to a dissolution test 2nd fluid of the Japanese Pharmacopoeia: 23.2 µM, hereinafter abbreviated as a compound A) was selected as an active component, Poly(vinyl alcohol) [MW 6000] (manufactured by Polysciences, Inc., the same hereinafter unless otherwise specified) was selected as a thermoplastic polymer, maltitol (SweetPearl P200, manufactured by Roquette, the same hereinafter unless otherwise specified) was selected as a sugar alcohol, and Triethyl Citrate (manufactured by Tokyo Chemical Industry Co., Ltd., the same hereinafter unless otherwise specified) was selected as a plasticizer component.

- solubility (dissolution test 1st fluid of the Japanese Pharmacopoeia, pH 1.2, simulated gastric fluid, read-out: solubility to a dissolution test 1st fluid of the Japanese Pharmacopoeia): > 100 µM
- solubility (dissolution test 2nd fluid of the Japanese Pharmacopoeia, pH 6.8, aqueous buffer, read-out: solubility to a dissolution test 2nd fluid of the Japanese Pharmacopoeia): 23.2 µM (≈ 14.3 µg/mL)
Structure (SMILES): O=C(/C=C/c1ccc(Cl)cc1)N[C@@H](Cc1ccccn1)C(=O)NCC(=O)N1CCC(Oc2cc(C(F)(F)F)ncn2)CC1 [compound A, N^2-[(2E)-3-(4-chlorophenyl)-2-propenoyl]-N-[2-oxo-2-(4-{[6-(trifluoromethyl)pyrimidine-4-yl]oxy}piperidine-1-yl)ethyl]-3-pyridine-2-yl-L-alaninamide]
